The test system of data set [1] is rats. Description: Palatable food intake (binge-like eating) of a fat/sucrose mixture during 30 min exposure periods. In kind it is in vivo. Particulars: for palatable food intake (binge-like eating): N=5; for palatable food intake: N=12. Here is the method: Rats were trained to consume a palatable fat mixture (90% vegetable shortening, 10% sucrose) during brief exposure periods (30 mins) that occurred twice per week. The amount of palatable food consumed during these 30 min exposure periods was measured.

For data set [2], the system named is BED patients. The note with it: daily LDX administration; cited from earlier work.
Data set [3] concerns rats. Description: Sleep EEG/EMG telemetry recordings over the 12 hours inactive period. Particulars: d-amphetamine alone 0.75 mg/kg i.p., 1 hr prior to onset of inactive period.
Data set [4] concerns rats. Description: Locomotor activity / behavioral sensitization on repeated (7 d) dosing. It is filed as in vivo. Particulars: d-amphetamine alone 0.375 mg/kg i.p., 7 consecutive days; recorded 1 hour following treatment. Here is the method:
Rats were measured for baseline locomotor activity (Day 0). Rats then received injections of saline, d-amphetamine, or the combination of d-amphetamine and suvorexant, for 7 consecutive days. Locomotor activity was recorded for 1 hour following treatment.

Entries after “also recorded” stand apart in the source; their conditions may differ.

Take `Cc1nc2ccc(NC(=O)Nc3ccnc4cccnc34)cc2o1` [SB334867]: the “palatable food intake (binge-like eating)” value in data set [1] (SB334867 alone 10 mg/kg i.p.) was “observed only at the highest dose; also recorded: A significant reduction was observed only at a high dose”; in data set [1] (SB334867 alone 30 mg/kg i.p.), “significant change; also recorded: significant reduction”.

For the compound `C[C@@H](Cc1ccccc1)NC(=O)[C@@H](N)CCCCN` [LDX, lisdexamfetamine], in data set [2], the binge frequency entry is reported as “highly effective at reducing binge frequency” and the “patients reporting complete binge cessation” value is on record as 35-50%.

For the compound `C[C@H](N)Cc1ccccc1` [d-amphetamine], in data set [3], the “total time in REM sleep compared to baseline” value was “decreased” and the “total time in active wake compared to baseline” value is “increased”. Besides, in data set [4], the “locomotor activity (behavioral reactivity)” value is “significantly higher; also recorded: increased locomotor activity”. In data set [1] (d-amphetamine alone 0.1875 mg/kg i.p. prior to test session), the palatable food intake result is reported as “no significant change; also recorded: no effect”. The palatable food intake result in data set [1] (d-amphetamine alone 0.375 mg/kg i.p. prior to test session) was “no significant change; also recorded: no effect”.

In the case of `Cc1ccc(-n2nccn2)c(C(=O)N2CCN(c3nc4cc(Cl)ccc4o3)CC[C@H]2C)c1` [suvorexant], the palatable food intake result in data set [1] (suvorexant alone 10 mg/kg i.p. prior to test session) was “no significant change; also recorded: no effect”.

(Values after patent publication US20260021059A1, “THERAPEUTIC COMBINATIONS AND METHODS” (RUTGERS, THE STATE UNIVERSITY OF NEW JERSEY, priority 2022, published 2026).)
